Read-outs that look alike come from different tables or passages of the source.
Tests used:
[1] = Interaction with ferriprotoporphyrin IX, spectroscopic titration of Soret band at 402 nm; format: binding; details: for log K (association constant of drug binding to hemin): pH 7.4, 40% aqueous DMSO, 1:1 complexation model, mean and SEM of three experiments; for hypochromic effect on the Soret band of hemin: until saturation point, 402 nm
Procedure: The association constants (Log K) of the compounds with hemin were determined at pH 7.4 using a 1:1 complexation model with the equation proposed by Egan et al.[52] for the nonlinear least-squares fitting (Figure 2, Table 2).
Following a procedure described in the literature,[52] the association constant (Log K) of the drugs with ferriprotoporphyrin IX was determined in 40% aqueous DMSO. A stock solution of hemin chloride was prepared by adding 3.5 mg hemin to 10 mL DMSO and adjusted to pH 7.5. A working solution of hemin in 40% DMSO was further prepared by mixing 140 μL hemin stock solution, 5 mL distilled water, 3.86 mL DMSO, and 1 mL 0.2 M Tris (tris(hydroxymethyl)aminomethane) buffer. Aliquots of compounds were added to this working hemin solution. Blank solutions containing only hemin or compounds were prepared to subtract the absorbance of the compounds. […] Binding affinity was determined using the equation A = (A0 + A∞K[C])/(1 + K[C]) for a 1:1 complexation model using nonlinear least-squares fitting, where A0 is the absorbance of Fe(III)PPIX, A∞ is the absorbance of the compound–hemin adduct at saturation, and K is the association constant. Three independent experiments were performed.

[2] = test system: P. falciparum W2 (CQ-resistant strain); assay: Antiplasmodial activity, asexual blood stages, HRP2 ELISA-based assay, W2 strain; format: cell-based, Plasmodium falciparum; details: CQ-resistant W2 strain, 72 h drug incubation, mean of five to seven experiments, read-out: P. falciparum IC50 (±SEM), W2
Procedure: The potency of the metal complexes to inhibit parasite growth was also examined in comparison with ATV.
The two strains were synchronized twice with sorbitol before use,[69] and clonality was verified every 15 days through PCR genotyping of the polymorphic genetic markers msp1 and msp2 and microsatellite loci.[70],[71] Compounds were resuspended in DMSO and then diluted in RPMI-DMSO (99v/1v) to obtain final concentrations ranging from 0.25 to 20000 nM.
After freezing and then thawing, the hemolyzed cultures were homogenized by vortexing the plates. The drug susceptibility assay was performed using the HRP2 ELISA-based assay of the Malaria Ag Celisa kit (ref KM2159, Cellabs PTY LDT, Brookvale, Australia), as described previously.[72]

[3] = Buffer–n-octanol distribution coefficient (shaking flask method)
Procedure: The distribution coefficient (Log D), a proxy parameter to estimate drug lipophilicity, was assessed for ATV and its metal complexes 1–3.
Buffer–n-octanol distribution coefficients were determined using the shaking flask method.[73] A UV–vis calibration curve was prepared in the 10–100 μM range in n-octanol. […] The concentration of complex in n-octanol was measured spectrophotometrically in order to determine values of D = [compound] (in n-octanol)/[compounds] (in buffer).[66],[67]

[4] = Chemical stability in solution (UV–vis, NMR, molar conductivity); format: physicochemical; details: for ΛM (DMSO) Day 1 / ΛM (DMSO) Day 2 / ΛM (DMSO) Day 3 / ΛM (DMSO) Day 7 / ΛM (DMSO) Day 15: molar conductivity in DMSO, stability; for stability by UV–vis in pure DMSO: primarily within 0–24 h
Procedure: Three distinct methodologies were used to investigate the in-solution stability of metal–ATV complexes 1–3, namely ultraviolet–visible (UV–vis) spectra, NMR, and molar conductivity. All experiments were performed in dimethyl sulfoxide (DMSO) and monitored for at least 72 h, a time frame which coincides with antimalarial drug treatment.
Furthermore, no significant changes in the ^1H NMR and ^31P{^1H} NMR spectra of the complexes were observed up to 72 h in comparison to freshly dissolved solution, denoted as time 0 h (Figures S20–S25). However, for the ^31P{^1H} NMR spectrum of the complex 3, it is observed an increasing intensity of the singlet at 28 ppm that can be attributed to oxidized PPh3, which may be leaving the coordination sphere, but this is relative low when compared with the signal of the complex at −1.76 ppm. Both molar conductivity and NMR data therefore indicate that the metal complexes remained intact in this condition. The observed […] in DMSO is likely related to the fact that the metal atoms are bonded to phosphine ligands, hindering any oxidation of the metal center.
As for the UV–vis analyses, these were used to assess the stability of metal–ATV complexes 1–3 in a solution of pure DMSO or DMSO mixed with aqueous media. To this end, three different conditions were employed in parallel experiments. […] The small change in absorbance observed can be attributed to dynamic equilibrium processes or structural reorganization of the metal complexes. These processes may include partial dissociation of ligands, reorientation of solvent molecules around the metal ion, or even conformational changes of the metal complexes. […] Highlighting that these conditions are the most similar to those employed in the determination of biological activity. Based on this, we concluded that in mixed aqueous/organic media, ATV and complexes 1–3 may undergo slight structural modifications, but no significant ligand exchange reactions occur, as previously observed in the stability studies by NMR.
For the stability studies by NMR spectroscopy, fresh solutions of the complexes in DMSO-d6 with concentrations of 22–25 mM were used. In the studies by UV–vis spectroscopy, three experimental conditions were employed: a) only DMSO, b) 90% DMSO/10% H2O, and c) 90% DMSO/10% RPMI 1640 (Roswell Park Memorial Institute) medium, with concentrations of the complexes 1-3 in 0.28–0.35 μM, 0.25–0.28 μM and 0.32–0.38 μM, respectively. Fresh solutions of the complexes dissolved in DMSO were always used and subsequently diluted with water or RPMI medium.

HepG2 cells = assay: Cytotoxicity in mammalian cells (CellTiter-Glo), HepG2; format: cell-based; details: HepG2 human hepatocellular carcinoma line; 72 h drug incubation; mean of three experiments; read-out: mammalian cells CC50 (±SEM), HepG2
Procedure: (§1) Cell lines J774 and HepG2 were incubated with the drug for 72 h, the same time frame as employed to determine antimalarial activity. Cytotoxicity was evaluated in parallel with ATV as a representative parental drug, while doxorubicin was used as a standard cytotoxic drug. These experiments were also used to estimate the in vitro selectivity index (Table 2).
(§2) Doxorubicin chloridrate (Eurofarma, São Paulo, Brazil) was used as a positive control, while untreated cells were employed as negative controls. Bioluminescence readings were performed using a Filtermax F5Multi-Mode instrument (Molecular Devices, Sunnyvale, CA) using the CellTiter-Glo kit (Promega Corporation, Madison, USA). Three independent experiments were performed and CC50 values were calculated.

Solubility in solvents = format: physicochemical; details: for solubility in common organic solvents: dichloromethane, chloroform, dimethyl sulfoxide, acetone
Excerpt: (see Experimental Section). The chemical and physical characterization of ATV and the metal–ATV complexes are presented in the Supporting Information (Figures S1–S16). […] We attributed this band to a metal-to-ligand charge transfer (MLCT metal →π ATV naphthoquinone)[37] (Figures S3, S26–S28).

J774 cells = assay: Cytotoxicity in mammalian cells (CellTiter-Glo), J774; format: cell-based; details: J774 murine macrophage line; 72 h drug incubation; mean of three experiments; read-out: mammalian cells CC50 (±SEM), J774
Procedure: as §1, §2

Row | Compound | log K (association constant of drug binding to hemin) [1] | hypochromic effect on the Soret band of hemin [1] [%] | IC50 ([2]; Plasmodium falciparum) [µM] | logD at 18 h ([3]; pH 5) | logD at 18 h ([3]; pH 7) | ΛM (DMSO) Day 1 [4] [Ohm-1cm2mol-1] | ΛM (DMSO) Day 2 [4] [Ohm-1cm2mol-1] | ΛM (DMSO) Day 3 [4] [Ohm-1cm2mol-1] | ΛM (DMSO) Day 7 [4] [Ohm-1cm2mol-1] | ΛM (DMSO) Day 15 [4] [Ohm-1cm2mol-1] | CC50 (HepG2 cells) [µM] | solubility in common organic solvents (Solubility in solvents) | solubility in methanol, ethanol, and acetonitrile (Solubility in solvents) | CC50 (J774 cells) [µM] | IC50 [2] [µM] | log D pH 5 ([3]; pH 5) | log D pH 7 ([3]; pH 7) | stability by UV–vis in 90% DMSO mixed with 10% water ([4]; 90% DMSO/10% H2O) | stability by UV–vis in pure DMSO [4]
1 | O=C1C(O)=C([C@H]2CC[C@H](c3ccc(Cl)cc3)CC2)C(=O)c2ccccc21 [ATV, atovaquone] | 3.64 ± 0.10 | 42 | 0.0021 ± 0.0009 | -1.17 | -1.15 | 0.93 | 1.07 | 1.23 | 1.68 | 2.04 | – | – | – | – | – | – | – | – | –
2 | O=C1C([O][Cu]([PH](c2ccccc2)(c2ccccc2)c2ccccc2)[PH](c2ccccc2)(c2ccccc2)c2ccccc2)=C([C@H]2CC[C@H](c3ccc(Cl)cc3)CC2)C(=O)c2ccccc21 [Complex 3, [Cu(ATV)(PPh3)2]] | 3.97 ± 0.01 | 38 | – | – | – | 3.71 | 3.80 | 3.47 | 3.14 | 3.05 | 44.3 ± 7.7 | had enough solubility | partially soluble | 36.1 ± 3.9 | 0.0263 ± 0.0069 | –5.18 | 1.06 | major change in the spectra | modifications were observed in the electronic spectra
3 | [Ag(ATV)(PPh3)2] [Complex 1] | 4.33 ± 0.05 | 37 | – | – | – | 12.81 | 13.90 | 16.14 | 13.70 | 12.17 | 14.6 ± 0.9 | had enough solubility | partially soluble | 9.5 ± 2.2 | 0.0265 ± 0.0078 | –2.12 | 0.08 | – | –
4 | [Au(ATV)(PPh3)]·2H2O [Complex 2] | 4.46 ± 0.01 | 51 | – | – | – | 12.69 | 14.51 | 12.53 | 12.41 | 11.84 | 8.9 ± 2.7 | had enough solubility | partially soluble | 10.8 ± 3.4 | 0.0052 ± 0.0022 | –1.87 | –1.71 | – | modifications were observed in the electronic spectra

— publication PMC11409218, “Metal(triphenylphosphine)-atovaquone Complexes: Synthesis, Antimalarial Activity, and Suppression of Heme Detoxification” (Inorganic Chemistry, 2024)
